In PubChem BioAssay AID330 (DTP/NCI, 2004):
Values joined by “and” are separate entries in the source; they are usually repeats but may differ in a detail not shown here. Equal values may be shown once. Inconclusive results and toxic doses are left out.

Test system: P388 leukemia ip, CD2F1 mice, survival T/C
Assay: NCI In Vivo Anticancer Drug Screen. Data for tumor model P388 Leukemia (intraperitoneal) in CD2F1 (CDF1) mice
Conditions: endpoint: median survival time, higher = longer survival
Outline: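 Mice carrying the transplanted tumor received test compound or vehicle. Survival was recorded in each group, and the value is the treated-group measurement divided by that of the vehicle-treated control group.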

[1] = dose: 50.0 mg/kg/injection, schedule: Q01DX009 (ip), vehicle: saline
[2] = dose: 200.0 mg/kg/injection, schedule: Q01DX009 (ip), vehicle: saline
[3] = dose: 100.0 mg/kg/injection, schedule: Q01DX001 (ip), vehicle: Klucel (hydroxypropylcellulose) (HPC)
[4] = dose: 200.0 mg/kg/injection, schedule: Q01DX001 (ip), vehicle: Klucel (hydroxypropylcellulose) (HPC)
[5] = dose: 50.0 mg/kg/injection, schedule: Q01DX009 (ip), vehicle: suspension in saline
[6] = dose: 100.0 mg/kg/injection, schedule: Q01DX009 (ip), vehicle: suspension in saline
[7] = dose: 200.0 mg/kg/injection, schedule: Q01DX009 (ip), vehicle: suspension in saline
[8] = dose: 12.5 mg/kg/injection, schedule: Q01DX009 (ip), vehicle: suspension in saline
[9] = dose: 60.0 mg/kg/injection, schedule: Q01DX005 (ip), vehicle: saline with Tween-80
[10] = dose: 120.0 mg/kg/injection, schedule: Q01DX005 (ip), vehicle: saline with Tween-80
[11] = dose: 240.0 mg/kg/injection, schedule: Q01DX005 (ip), vehicle: saline with Tween-80
[12] = dose: 50.0 mg/kg/injection, schedule: Q01DX009 (ip), vehicle: saline with Tween-80
[13] = dose: 100.0 mg/kg/injection, schedule: Q01DX009 (ip), vehicle: saline with Tween-80
[14] = dose: 200.0 mg/kg/injection, schedule: Q01DX009 (ip), vehicle: saline with Tween-80
[15] = dose: 25.0 mg/kg/injection, schedule: Q01DX009 (ip), vehicle: saline

With `COc1cc(C2c3cc(O)c(OC)cc3CC(O)(CO)C2CO)ccc1O` (stereo not given) the T/C (dose: 23.75 mg/kg/injection, schedule: Q01DX005 (ip), vehicle: Klucel (hydroxypropylcellulose) (HPC)) was 100 % of control, the T/C (dose: 47.5 mg/kg/injection, schedule: Q01DX005 (ip), vehicle: Klucel (hydroxypropylcellulose) (HPC)) was 95 % of control and the T/C (dose: 95.0 mg/kg/injection, schedule: Q01DX005 (ip), vehicle: Klucel (hydroxypropylcellulose) (HPC)) was 86 % of control. The T/C (dose: 190.0 mg/kg/injection, schedule: Q01DX005 (ip), vehicle: Klucel (hydroxypropylcellulose) (HPC)) was 90 % of control.
In the case of `CC(=O)OC(CCC1CO1)OC(C)=O` (stereo not given), the T/C [1] is reported as 100 % of control, the T/C (dose: 100.0 mg/kg/injection, schedule: Q01DX009 (ip), vehicle: saline) is reported as 98 % of control and the T/C [2] is reported as 100 % of control.
For `N#CCCn1nc(SC2CCCCC2)c(=O)[nH]c1=O`, the T/C (dose: 25.0 mg/kg/injection, schedule: Q01DX005 (ip), vehicle: water) was 108 % of control, the T/C (dose: 50.0 mg/kg/injection, schedule: Q01DX005 (ip), vehicle: water) was 103 % of control and the T/C (dose: 100.0 mg/kg/injection, schedule: Q01DX005 (ip), vehicle: water) was 98 % of control. The T/C (dose: 200.0 mg/kg/injection, schedule: Q01DX005 (ip), vehicle: water) was 108 % of control.
With `CC(C)N1CCC(Oc2ccc3ccccc3n2)C1` (stereo not given) the T/C (dose: 50.0 mg/kg/injection, schedule: Q01DX009 (ip), vehicle: Klucel (hydroxypropylcellulose) (HPC)) was 100 % of control and the T/C (dose: 100.0 mg/kg/injection, schedule: Q01DX009 (ip), vehicle: Klucel (hydroxypropylcellulose) (HPC)) was 91 % of control.
With `C=CC(=O)N1CN(C(=O)C=C)CN(C(=O)C=C)C1` the T/C (dose: 6.25 mg/kg/injection, schedule: Q01DX009 (ip), vehicle: saline with Tween-80) was 100 % of control and the T/C (dose: 12.5 mg/kg/injection, schedule: Q01DX009 (ip), vehicle: saline with Tween-80) was 158 % of control.
For `C[N+]1(C)CCCC(C(=O)c2ccccc2)C1` (stereo not given), the T/C (dose: 3.75 mg/kg/injection, schedule: Q01DX005 (ip), vehicle: saline) was 119 % of control, the T/C (dose: 7.5 mg/kg/injection, schedule: Q01DX005 (ip), vehicle: saline) was 108 % of control and the T/C (dose: 15.0 mg/kg/injection, schedule: Q01DX005 (ip), vehicle: saline) was 103 % of control. For the same molecule, the T/C (dose: 30.0 mg/kg/injection, schedule: Q01DX005 (ip), vehicle: saline) was 100 % of control and 101 % of control.
With `COC(=O)/C1=C/N(C=O)CCCC2OC12C(=O)OC` (stereo not given) the T/C [3] was 100 % of control and the T/C [4] was 100 % of control.
With `O=C1CCSC(=S)N1c1ccc(Br)c(Cl)c1` the T/C [5] was 116 % of control, the T/C [6] was 116 % of control and the T/C [7] was 106 % of control.
For `Cn1ccn(CCCCCCn2ccn(C)c2=S)c1=S`, the T/C (dose: 3.12 mg/kg/injection, schedule: Q01DX009 (ip), vehicle: saline) was 103 % of control, the T/C (dose: 6.25 mg/kg/injection, schedule: Q01DX009 (ip), vehicle: saline) was 96 % of control and the T/C [8] was 92 % of control.
With `Cc1cn(C)c2c1-c1[nH]ncc1CC2` the T/C (dose: 50.0 mg/kg/injection, schedule: Q04DX003 (ip), vehicle: Klucel (hydroxypropylcellulose) (HPC)) was 100 % of control, the T/C (dose: 100.0 mg/kg/injection, schedule: Q04DX003 (ip), vehicle: Klucel (hydroxypropylcellulose) (HPC)) was 99 % of control and the T/C (dose: 200.0 mg/kg/injection, schedule: Q04DX003 (ip), vehicle: Klucel (hydroxypropylcellulose) (HPC)) was 103 % of control.
In the case of `CCCN1C[C@H](CSC)C[C@@H]2c3cccc4[nH]cc(c34)C[C@H]21`, the T/C (dose: 6.25 mg/kg/injection, schedule: Q01DX009 (ip), vehicle: Klucel (hydroxypropylcellulose) (HPC)) is reported as 103 % of control, the T/C (dose: 12.5 mg/kg/injection, schedule: Q01DX009 (ip), vehicle: Klucel (hydroxypropylcellulose) (HPC)) is reported as 101 % of control and the T/C (dose: 25.0 mg/kg/injection, schedule: Q01DX009 (ip), vehicle: Klucel (hydroxypropylcellulose) (HPC)) is reported as 99 % of control.
For `COC1=CCC(CCNC(=O)c2cc3c(cc2[N+](=O)[O-])OCO3)=CC1`, the T/C [9] was 101 % of control, the T/C [10] was 93 % of control and the T/C [11] was 98 % of control.
In the case of `CCOP(O)(=S)OCC.[Sm]`, the T/C [3] is reported as 88 % of control, the T/C [4] is reported as 88 % of control and the T/C (dose: 400.0 mg/kg/injection, schedule: Q01DX001 (ip), vehicle: Klucel (hydroxypropylcellulose) (HPC)) is reported as 94 % of control.
With `COC(=O)NC1CC1C(=O)OC` (stereo not given) the T/C (dose: 100.0 mg/kg/injection, schedule: Q01DX002 (ip), vehicle: saline) was 104 % of control, the T/C (dose: 200.0 mg/kg/injection, schedule: Q01DX002 (ip), vehicle: saline) was 99 % of control and the T/C (dose: 400.0 mg/kg/injection, schedule: Q01DX002 (ip), vehicle: saline) was 102 % of control.
In the case of `COc1cc(C2NC(C(=O)O)CS2)cc(OC)c1OC` (stereo not given), the T/C [5] is reported as 94 % of control, the T/C [6] is reported as 97 % of control and the T/C [7] is reported as 96 % of control.
With `CC(=O)OC(C)N(C(C)=O)c1ncc([N+](=O)[O-])s1` (stereo not given) the T/C (dose: 25.0 mg/kg/injection, schedule: Q01DX009 (ip), vehicle: saline with Tween-80) was 100 % of control, the T/C [12] was 101 % of control and the T/C [13] was 106 % of control. The T/C [14] was 110 % of control.
For `CCN(CC)CCSc1c2ccc(Cl)cc2nc2ccc(OC)cc12`, the T/C (dose: 12.5 mg/kg/injection, schedule: Q01DX005 (ip), vehicle: saline) was 106 % of control, the T/C (dose: 25.0 mg/kg/injection, schedule: Q01DX005 (ip), vehicle: saline) was 106 % of control and the T/C (dose: 50.0 mg/kg/injection, schedule: Q01DX005 (ip), vehicle: saline) was 105 % of control and 106 % of control.
In the case of `Cc1cccn2c(CCCc3nnc4c(C)cccn34)nnc12`, the T/C [12] is reported as 100 % of control, the T/C [13] is reported as 101 % of control and the T/C [14] is reported as 101 % of control.
For `C(=Nc1ccc2ccccc2c1)Nc1ccc2ccccc2c1.[Cu+2]`, the T/C [15] was 115 % of control and the T/C [12] was 117 % of control.
With `COc1ccc2cc1Oc1ccc(cc1)CC1c3cc(OC)c(OC)c(c3CCN1C)Oc1c(OC)c(OC)cc3c1[C@H](C2)NCC3` (stereo not given in full) the T/C (dose: 2.75 mg/kg/injection, schedule: Q01DX005 (ip), vehicle: Klucel (hydroxypropylcellulose) (HPC)) was 90 % of control, the T/C (dose: 5.5 mg/kg/injection, schedule: Q01DX005 (ip), vehicle: Klucel (hydroxypropylcellulose) (HPC)) was 99 % of control and the T/C (dose: 11.0 mg/kg/injection, schedule: Q01DX005 (ip), vehicle: Klucel (hydroxypropylcellulose) (HPC)) was 99 % of control. The T/C (dose: 22.0 mg/kg/injection, schedule: Q01DX005 (ip), vehicle: Klucel (hydroxypropylcellulose) (HPC)) was 94 % of control.
In the case of `Oc1ccccc1C1=CC=NCCN1`, the T/C (dose: 15.0 mg/kg/injection, schedule: Q01DX005 (ip), vehicle: saline with Tween-80) is reported as 96 % of control, the T/C (dose: 30.0 mg/kg/injection, schedule: Q01DX005 (ip), vehicle: saline with Tween-80) is reported as 101 % of control and the T/C [9] is reported as 101 % of control.
In the case of `O=C(c1ccc(Cl)cc1)c1cc2ccccc2oc1=O`, the T/C [9] is reported as 92 % of control, the T/C [10] is reported as 93 % of control and the T/C [11] is reported as 93 % of control.
In the case of `Cc1ccc(S(=O)(=O)NC(CC(=O)OCc2ccccc2)C(=O)OCc2ccccc2)cc1` (stereo not given), the T/C [12] is reported as 101 % of control, the T/C [13] is reported as 86 % of control and the T/C [14] is reported as 90 % of control.
`Oc1ccccc1` was tested, and the T/C (dose: 0.12 % in 0.5 ml injection vol, schedule: Q01DX009 (ip), vehicle: water) was 103 % of control, the T/C (dose: 0.25 % in 0.5 ml injection vol, schedule: Q01DX009 (ip), vehicle: water) was 103 % of control and the T/C (dose: 0.5 % in 0.5 ml injection vol, schedule: Q01DX009 (ip), vehicle: water) was 111 % of control. For the same molecule, the T/C (dose: 1.0 % in 0.5 ml injection vol, schedule: Q01DX009 (ip), vehicle: water) was 118 % of control.
For `CCC(c1ccc(OCCS(=O)(=O)OC)cc1)C(CC)c1ccc(OCCS(=O)(=O)OC)cc1` (stereo not given), the T/C [8] was 100 % of control, the T/C (dose: 25.0 mg/kg/injection, schedule: Q01DX009 (ip), vehicle: suspension in saline) was 94 % of control and the T/C [1] was 91 % of control. For the same molecule, the T/C [5] was 87 % of control and the T/C [2] was 92 % of control.
In the case of `CC(C)C1=CC2=CCC3C(C)(C(=O)O)CCCC3(C)C2CC1.[Ni]` (stereo not given), the T/C (dose: 12.5 mg/kg/injection, schedule: Q01DX009 (ip), vehicle: saline) is reported as 95 % of control, the T/C [15] is reported as 88 % of control and the T/C [1] is reported as 88 % of control.
In the case of `COc1c(NC(C)=O)c2ccccc2c2ccccc12`, the T/C (dose: 50.0 mg/kg/injection, schedule: Q01DX005 (ip), vehicle: Klucel (hydroxypropylcellulose) (HPC)) is reported as 106 % of control, the T/C (dose: 100.0 mg/kg/injection, schedule: Q01DX005 (ip), vehicle: Klucel (hydroxypropylcellulose) (HPC)) is reported as 109 % of control and the T/C (dose: 200.0 mg/kg/injection, schedule: Q01DX005 (ip), vehicle: Klucel (hydroxypropylcellulose) (HPC)) is reported as 97 % of control.
